# System: Plasmodium berghei
# Assay: (§1) Antimalarial activity against Plasmodium berghei in mice (Mus musculus)
# Format: functional
SMILES,ED50 [mg/kg],ED90 [mg/kg]
O=C(O)c1ccc([C@@]23CC[C@H]4CCC[C@H]5CCO[C@H](O2)[C@@]45OO3)cc1,15,51
O=C(O)c1ccc([C@]23CC[C@H]4CCCC[C@@]4(OO2)[C@H](OCc2ccccc2)O3)cc1,17,59
C[C@@H]1[C@H](OCc2ccc(C(=O)O)cc2)O[C@@H]2O[C@@]3(C)CC[C@@H]4[C@@H](C)CC[C@@H]1[C@]24OO3 [ARTELINIC ACID],9.6,29

# System: Plasmodium berghei
# Assay: as §1
# Format: functional, organism-based
row,SMILES,IC50 [nM]
1,Fc1ccc([C@]23CC[C@H]4CCCC[C@@]4(OO2)[C@H](OCc2ccccc2)O3)cc1,31
2,c1ccc([C@@]23CC[C@H]4CCC[C@H]5CCO[C@H](O2)[C@@]45OO3)cc1,1.3
3,C[C@@H]1CC[C@H]2[C@@H](C)C(=O)O[C@@H]3O[C@@]4(C)CC[C@@H]1[C@]32OO4 [ARTEMISININ],9.4

# Reference: ChEMBL document CHEMBL1135757, “Orally active, water-soluble antimalarial 3-aryltrioxanes: short synthesis and preclinical efficacy testing in rodents” (J Med Chem, 2002)
